In PubChem BioAssay (NCI):
“And” between values parts separate entries of the source, which are not always exact repeats. Equal entries are not always repeated.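 Grown in 96-well plates, cells were treated for 48 hours with each compound at five concentrations. Insufficient inhibition: endpoint recorded as highest concentration tested. GI50 marks 50% less growth. At the TGI there is no net growth.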

Tested on: OVCAR-3 ovarian
Experiment: NCI anticancer screen, dose series, 48 h

How did the GI50 turn out when COC(=O)C1=COC(C)C2CN3CCc4c([nH]c5ccccc45)C3CC12 (configuration not stated) was run?
The GI50 was 24.2 µM and > 100 µM.

And the TGI?
Its TGI is greater than 100 µM.

For O=C(NCc1ccc(Cn2c(=O)sn(-c3ccccc3)c2=O)cc1)OCc1ccc2cccc(O)c2n1, which GI50 is on record?
The GI50 was 0.363 µM.

What about the TGI of the same compound?
The TGI was 1.36 µM.

For COC(c1ccc(C(C)(C)C)cc1)(c1ccc(C(C)(C)C)cc1)c1ccc(C(C)(C)C)cc1, which TGI is on record?
The TGI was greater than 100 µM.

Which results are given for CC(C)c1[nH]nc2c1N=C(c1ccccc1Cl)c1cc([N+](=O)[O-])ccc1N2?
GI50: 4.68 µM; TGI: 13.1 µM

What does the source list for Nc1cc2c(cc1Br)[nH]c(=O)c1ccccc12?
GI50: 2.14 µM; TGI: 6.45 µM

With COc1ccc(-c2nccn2-c2ccc(OC)cc2)cc1 as the compound, how does the GI50 read?
Its GI50 is 21.6 µM.

And the TGI?
Its TGI is 62.6 µM.

For O=C(/C=C/c1ccccc1)c1ccccc1, which TGI is on record?
The TGI was greater than 10 µM.

With CC(C)[C@H](O)C(=O)N[C@@H](C)C(=O)N[C@@H]1C(=O)N(C)CCc2ccccc21 as the compound, how does the GI50 read?
The GI50 was greater than 100 µM.

And the TGI?
The TGI was greater than 100 µM.

Which results are given for C=CC(=O)N1CN(C(=O)C=C)CN(C(=O)C=C)C1?
GI50: 2.57 µM; TGI: 7.99 µM

Which GI50 does the source give for COc1ccc(-c2cnnn2-c2nonc2-n2cccc2)cc1 here?
The GI50 was 0.179 µM.

And the TGI?
The TGI was 0.47 µM.

C#CCOc1cccc(Nc2ncnc3c(NC(=O)C=C)cccc23)c1 was tested. Which GI50 did it give?
The GI50 was 16.5 µM.

What about the TGI of the same compound?
Its TGI is 91.5 µM.

For CO[C@H]1Nc2c(ccc(C)c2O)C(=O)N2C=C(/C=C/C(N)=O)C[C@@H]12, which TGI is on record?
The TGI was 0.192 µM.

Which GI50 does the source give for O=C(/C(=C\c1c(-c2ccccc2)[nH]c2ccccc12)S(=O)(=O)c1ccccc1)c1ccccc1 here?
The GI50 was greater than 100 µM.

And the TGI?
Its TGI is greater than 100 µM.

For COc1ccc(C(=O)c2cc(OC)c(OC)c(OC)c2)cc1OC, which TGI is on record?
The TGI was 9.47 µM.

Which TGI does the source give for CCNC(=O)/C(=C/c1ccc(OC)cc1)c1cc(OC)c(OC)c(OC)c1 here?
Its TGI is 15 µM.

How did the GI50 turn out when CCCc1cc(=O)n2c(C(=O)Nc3ccc(Cl)cc3C)c(C(=O)Nc3ccc(F)cc3)sc2n1 was run?
The GI50 was 3.35 µM.

What about the TGI of the same compound?
Its TGI is 8.33 µM.

For COc1ccc(-c2ccc3c(N4CCOC[C@@H]4C)nc(N4CCOC[C@@H]4C)nc3n2)cc1CO, which GI50 is on record?
Its GI50 is 0.00504 µM and 0.0334 µM.

What about the TGI of the same compound?
The TGI was greater than 34.6 µM.

Which GI50 does the source give for N[C@H](CCC(=O)N[C@@H](Cc1c[nH]c2ccccc12)C(=O)O)C(=O)O here?
Its GI50 is greater than 100 µM.

And the TGI?
The TGI was greater than 100 µM.

With COc1ccc(-c2nc(-c3cc(OC)cc(OC)c3)[nH]c2-c2ccc(OC)cc2)cc1 as the compound, how does the GI50 read?
The GI50 was 5.95 µM.

What about the TGI of the same compound?
Its TGI is greater than 100 µM.

For CN(C)CCNCCN, which TGI is on record?
Its TGI is greater than 100 µM.

Which GI50 does the source give for COC(=O)c1cc2c(o1)-c1nccc3c1c(nc1ccccc13)C2=O here?
The GI50 was 1.26 µM.

What about the TGI of the same compound?
Its TGI is 4.37 µM.

Which GI50 does the source give for Nc1ccccc1O.O.O=C(O)C1[O][Sb][O]C1C(=O)O (configuration not stated) here?
Its GI50 is 13.4 µM.

What about the TGI of the same compound?
The TGI was 28.6 µM.

Which GI50 does the source give for O=C(c1ccco1)c1c(C(F)(F)F)n([O-])c2ccc(C(F)(F)F)cc2[n+]1=O here?
Its GI50 is 0.383 µM.

What about the TGI of the same compound?
Its TGI is 0.835 µM.

Which results are given for OC(c1cc(-c2ccc(C(F)(F)F)cc2)nc(C(F)(F)F)c1)C1CCCCN1 (configuration not stated)?
GI50: 1.85 µM and 2.69 µM; TGI: 3.28 µM and 6.76 µM

Which results are given for CC(C)CC(C/C=C1/CC(CO)(COC(=O)C(C)(C)C)OC1=O)CC(C)C (configuration not stated)?
GI50: 14.9 µM and 5.32 µM; TGI: 36.6 µM and 18.8 µM

What does the source list for O=C(Nc1cc(Nc2ncccc2-c2ncnc3nc[nH]c23)ccc1F)c1cc(C(F)(F)F)cc(C(F)(F)F)c1?
GI50: 2.67 µM; TGI: 6.69 µM

CC1(C)CN=C(NN=C(/C=C/c2ccc(C(F)(F)F)cc2)/C=C/c2ccc(C(F)(F)F)cc2)NC1 was tested. Which GI50 did it give?
The GI50 was 1.67 µM.

And the TGI?
The TGI was 3.05 µM.

Tested on: SK-MEL-5 melanoma
Experiment: NCI anticancer screen, dose series, 48 h

What does the source list for COC(=O)C1=COC(C)C2CN3CCc4c([nH]c5ccccc45)C3CC12 (configuration not stated)?
GI50: 22.6 µM and > 100 µM; TGI: 66.4 µM and > 100 µM

For O=C(NCc1ccc(Cn2c(=O)sn(-c3ccccc3)c2=O)cc1)OCc1ccc2cccc(O)c2n1, which GI50 is on record?
The GI50 was 1.6 µM.

What about the TGI of the same compound?
Its TGI is 2.97 µM.

How did the TGI turn out when COC(c1ccc(C(C)(C)C)cc1)(c1ccc(C(C)(C)C)cc1)c1ccc(C(C)(C)C)cc1 was run?
The TGI was greater than 100 µM.

Which results are given for CC(C)c1[nH]nc2c1N=C(c1ccccc1Cl)c1cc([N+](=O)[O-])ccc1N2?
GI50: 5.33 µM; TGI: 16.2 µM

For Nc1cc2c(cc1Br)[nH]c(=O)c1ccccc12, which GI50 is on record?
Its GI50 is 1.46 µM.

What about the TGI of the same compound?
The TGI was 2.79 µM.

Which GI50 does the source give for COc1ccc(-c2nccn2-c2ccc(OC)cc2)cc1 here?
The GI50 was 14.2 µM.

And the TGI?
The TGI was 30.4 µM.

For O=C(/C=C/c1ccccc1)c1ccccc1, which TGI is on record?
Its TGI is greater than 10 µM.

What does the source list for CC(C)[C@H](O)C(=O)N[C@@H](C)C(=O)N[C@@H]1C(=O)N(C)CCc2ccccc21?
GI50: > 100 µM; TGI: > 100 µM

C=CC(=O)N1CN(C(=O)C=C)CN(C(=O)C=C)C1 was tested. Which GI50 did it give?
Its GI50 is 9.61 µM.

What about the TGI of the same compound?
Its TGI is 24.7 µM.

Which results are given for COc1ccc(-c2cnnn2-c2nonc2-n2cccc2)cc1?
GI50: 0.324 µM; TGI: 13.2 µM

C#CCOc1cccc(Nc2ncnc3c(NC(=O)C=C)cccc23)c1 was tested. Which GI50 did it give?
The GI50 was 14.8 µM.

And the TGI?
Its TGI is 33.1 µM.

With CO[C@H]1Nc2c(ccc(C)c2O)C(=O)N2C=C(/C=C/C(N)=O)C[C@@H]12 as the compound, how does the TGI read?
Its TGI is 0.0308 µM.

How did the GI50 turn out when O=C(/C(=C\c1c(-c2ccccc2)[nH]c2ccccc12)S(=O)(=O)c1ccccc1)c1ccccc1 was run?
Its GI50 is 9.01 µM.

And the TGI?
Its TGI is greater than 100 µM.

For COc1ccc(C(=O)c2cc(OC)c(OC)c(OC)c2)cc1OC, which TGI is on record?
The TGI was greater than 100 µM.

For CCNC(=O)/C(=C/c1ccc(OC)cc1)c1cc(OC)c(OC)c(OC)c1, which TGI is on record?
Its TGI is greater than 53.9 µM.

What does the source list for CCCc1cc(=O)n2c(C(=O)Nc3ccc(Cl)cc3C)c(C(=O)Nc3ccc(F)cc3)sc2n1?
GI50: 27.1 µM; TGI: > 150 µM

Which GI50 does the source give for COc1ccc(-c2ccc3c(N4CCOC[C@@H]4C)nc(N4CCOC[C@@H]4C)nc3n2)cc1CO here?
Its GI50 is 0.00471 µM and 0.0264 µM.

How did the GI50 turn out when N[C@H](CCC(=O)N[C@@H](Cc1c[nH]c2ccccc12)C(=O)O)C(=O)O was run?
The GI50 was greater than 100 µM.

What about the TGI of the same compound?
The TGI was greater than 100 µM.

For COc1ccc(-c2nc(-c3cc(OC)cc(OC)c3)[nH]c2-c2ccc(OC)cc2)cc1, which GI50 is on record?
Its GI50 is 1.85 µM.

What about the TGI of the same compound?
Its TGI is 3.7 µM.

For CN(C)CCNCCN, which TGI is on record?
The TGI was greater than 100 µM.

Which results are given for COC(=O)c1cc2c(o1)-c1nccc3c1c(nc1ccccc13)C2=O?
GI50: 1.2 µM; TGI: 4.69 µM

Which GI50 does the source give for Nc1ccccc1O.O.O=C(O)C1[O][Sb][O]C1C(=O)O (configuration not stated) here?
Its GI50 is 1.77 µM.

What about the TGI of the same compound?
Its TGI is 3.99 µM.

O=C(c1ccco1)c1c(C(F)(F)F)n([O-])c2ccc(C(F)(F)F)cc2[n+]1=O was tested. Which GI50 did it give?
The GI50 was 0.508 µM.

And the TGI?
The TGI was 1.09 µM.

OC(c1cc(-c2ccc(C(F)(F)F)cc2)nc(C(F)(F)F)c1)C1CCCCN1 (configuration not stated) was tested. Which GI50 did it give?
Its GI50 is 1.63 µM and 1.86 µM.

What about the TGI of the same compound?
Its TGI is 2.99 µM and 3.27 µM.

For CC(C)CC(C/C=C1/CC(CO)(COC(=O)C(C)(C)C)OC1=O)CC(C)C (configuration not stated), which GI50 is on record?
Its GI50 is 0.462 µM and 0.0794 µM.

And the TGI?
The TGI was 18.8 µM and 4.95 µM.

With O=C(Nc1cc(Nc2ncccc2-c2ncnc3nc[nH]c23)ccc1F)c1cc(C(F)(F)F)cc(C(F)(F)F)c1 as the compound, how does the GI50 read?
Its GI50 is 1.12 µM.

And the TGI?
Its TGI is 2.76 µM.

How did the GI50 turn out when CC1(C)CN=C(NN=C(/C=C/c2ccc(C(F)(F)F)cc2)/C=C/c2ccc(C(F)(F)F)cc2)NC1 was run?
Its GI50 is 1.6 µM.

What about the TGI of the same compound?
Its TGI is 3.11 µM.

Tested on: MDA-MB-435
Experiment: NCI anticancer screen, dose series, 48 h

COC(=O)C1=COC(C)C2CN3CCc4c([nH]c5ccccc45)C3CC12 (configuration not stated) was tested. Which TGI did it give?
Its TGI is greater than 100 µM.

Which GI50 does the source give for O=C(NCc1ccc(Cn2c(=O)sn(-c3ccccc3)c2=O)cc1)OCc1ccc2cccc(O)c2n1 here?
Its GI50 is 0.709 µM.

And the TGI?
Its TGI is 2.03 µM.

How did the TGI turn out when COC(c1ccc(C(C)(C)C)cc1)(c1ccc(C(C)(C)C)cc1)c1ccc(C(C)(C)C)cc1 was run?
Its TGI is greater than 100 µM.

What does the source list for CC(C)c1[nH]nc2c1N=C(c1ccccc1Cl)c1cc([N+](=O)[O-])ccc1N2?
GI50: 0.87 µM; TGI: > 25 µM

For Nc1cc2c(cc1Br)[nH]c(=O)c1ccccc12, which GI50 is on record?
Its GI50 is 1.91 µM.

And the TGI?
The TGI was 3.57 µM.

Which GI50 does the source give for COc1ccc(-c2nccn2-c2ccc(OC)cc2)cc1 here?
The GI50 was 7.53 µM.

What about the TGI of the same compound?
The TGI was 35.1 µM.

With O=C(/C=C/c1ccccc1)c1ccccc1 as the compound, how does the TGI read?
Its TGI is greater than 10 µM.

Which GI50 does the source give for CC(C)[C@H](O)C(=O)N[C@@H](C)C(=O)N[C@@H]1C(=O)N(C)CCc2ccccc21 here?
The GI50 was greater than 100 µM.

What about the TGI of the same compound?
The TGI was greater than 100 µM.

What does the source list for C=CC(=O)N1CN(C(=O)C=C)CN(C(=O)C=C)C1?
GI50: 2.96 µM; TGI: 10.7 µM

How did the GI50 turn out when COc1ccc(-c2cnnn2-c2nonc2-n2cccc2)cc1 was run?
Its GI50 is 0.0325 µM.

And the TGI?
Its TGI is 0.173 µM.

Which GI50 does the source give for C#CCOc1cccc(Nc2ncnc3c(NC(=O)C=C)cccc23)c1 here?
Its GI50 is 7.14 µM.

And the TGI?
The TGI was 77.7 µM.

For CO[C@H]1Nc2c(ccc(C)c2O)C(=O)N2C=C(/C=C/C(N)=O)C[C@@H]12, which TGI is on record?
The TGI was 0.0293 µM.

With O=C(/C(=C\c1c(-c2ccccc2)[nH]c2ccccc12)S(=O)(=O)c1ccccc1)c1ccccc1 as the compound, how does the GI50 read?
Its GI50 is 3.94 µM.

And the TGI?
Its TGI is greater than 100 µM.
